Data on 1 molecule can be found in patent publication US4141986A, “Antibiotics 890A2 and 890A5” (Merck & Co., Inc., priority 1977, dated 1979).

The subject of the experiment is Salmonella schottmuellari MB-2837. Description: In vivo protection of intraperitoneally infected mice. The conditions noted are these: ip, at the time of infection and again 6 hours later; sample of 59 units/ml.; survival data of the seventh day. On the procedure:
In determining the in vivo activity, antibiotic 890A2 is dissolved in 0.15M NaCl, 0.01M sodium phosphate, pH 7.0, and diluted with water to provide five fourfold concentrations of drug for testing. Female white Swiss mice, averaging about 21 g. in weight, were infected intraperitoneally with the test organism suspended in broth. The numbers of organisms injected were determined by standard plate-count techniques. At the time of infection and again 6 hours later, certain of the mice were treated intraperitoneally with the antibiotic. Five mice were used for each concentration of drug tested. An additional two mice, not infected, were treated with the antibiotic to determine whether the amount of agent injected was toxic. Controls of five mice for each of several dilutions of the infecting culture were included in each test in order to calculate the numbers of organisms that were lethal to 50% of the infected, untreated mice (LD50). This calculation was made using survival data of the seventh day after infection, at which time the amount of drug that should protect 50% of the infected mice (ED50) also was calculated.
All animals receiving this challenge and not treated with antibiotic died within 48 hours of the infection. The efficacy of antibiotic 890A2, having a potency of 59 units/ml., against Salmonella schottmuellari MB-2837 is set forth below: […]

As for `CC(=O)NC=CSC1=C(C(=O)O)N2C(=O)C(C(C)O)C2C1` (stereo not shown) [Antibiotic 890A2], the “ED50 × 2 doses” value turned out to be 19 Units.
